Patent EP0620225B1, “Cephalosporin derivatives” (Basilea Pharmaceutica AG, priority 1993, dated 1994)
Values after ≈ are worked out from the molar mass of the structure shown. Like-named read-outs stand apart in the source and are kept apart here.

What was measured:
Acinetobacter sp.51-156 = experiment: Antibacterial spectrum (MIC), agar dilution; assay type: cell-based
Protocol: (§1) In vitro activity was determined by minimum inhibitory concentration in a microorganism spectum by the agar dilution method in Mueller Hinton agar.

C.freundii 43 = experiment: Antibacterial spectrum (MIC), agar dilution; assay type: cell-based
Protocol: as §1

C.freundii 902 = experiment: Antibacterial spectrum (MIC), agar dilution; assay type: cell-based
Protocol: as §1

E.cloacae 908R = experiment: Antibacterial spectrum (MIC), agar dilution; assay type: cell-based
Protocol: as §1

E.cloacae 908SSi = experiment: Antibacterial spectrum (MIC), agar dilution; assay type: cell-based
Protocol: as §1

E.coli 25922 = experiment: Antibacterial spectrum (MIC), agar dilution; assay type: cell-based
Protocol: as §1

E.faecalis 6 = experiment: Antibacterial spectrum (MIC), agar dilution; assay type: cell-based
Protocol: as §1

H.influenzae 1 = experiment: Antibacterial spectrum (MIC), agar dilution; assay type: cell-based
Protocol: as §1

K.pneumoniae 418 = experiment: Antibacterial spectrum (MIC), agar dilution; assay type: cell-based
Protocol: as §1

L.monocytogenes BK23 = experiment: Antibacterial spectrum (MIC), agar dilution; assay type: cell-based
Protocol: as §1

M.catarrhalis RA21 = experiment: Antibacterial spectrum (MIC), agar dilution; assay type: cell-based
Protocol: as §1

M.morganii 6H-137 = experiment: Antibacterial spectrum (MIC), agar dilution; assay type: cell-based
Protocol: as §1

N.meningitidis 69480 = experiment: Antibacterial spectrum (MIC), agar dilution; assay type: cell-based
Protocol: as §1

P.aeruginosa 27853 = experiment: Antibacterial spectrum (MIC), agar dilution; assay type: cell-based
Protocol: as §1

P.mirabilis 2117 = experiment: Antibacterial spectrum (MIC), agar dilution; assay type: cell-based
Protocol: as §1

P.vulgaris 1028 = experiment: Antibacterial spectrum (MIC), agar dilution; assay type: cell-based
Protocol: as §1

S.agalactiae QK44 = experiment: Antibacterial spectrum (MIC), agar dilution; assay type: cell-based
Protocol: as §1

S.aureus 6538 = experiment: Antibacterial spectrum (MIC), agar dilution; assay type: cell-based
Protocol: as §1

S.aureus 734 MRSA = experiment: Antibacterial spectrum (MIC), agar dilution; assay type: cell-based
Protocol: as §1

S.marcescens 69438 = experiment: Antibacterial spectrum (MIC), agar dilution; assay type: cell-based
Protocol: as §1

S.pneumoniae Q19 = experiment: Antibacterial spectrum (MIC), agar dilution; assay type: cell-based
Protocol: as §1

S.pyogenes B15 = experiment: Antibacterial spectrum (MIC), agar dilution; assay type: cell-based
Protocol: as §1

S.viridans group 016 = experiment: Antibacterial spectrum (MIC), agar dilution; assay type: cell-based
Protocol: as §1

X.maltophilia 1AC739 = experiment: Antibacterial spectrum (MIC), agar dilution; assay type: cell-based
Protocol: as §1

S.aureus MSSA = experiment: In vitro activity against selected species (MIC50, MIC90, range); assay type: cell-based; conditions: Staphylococcus aureus, medium MHB (Mueller Hinton Broth)
S.pneumoniae PEN-R = experiment: as above; assay type: cell-based; conditions: Streptococcus pneumoniae; for MIC: MIC range
S.viridans group = experiment: as above; assay type: cell-based; conditions: Streptococcus viridans
E.faecalis [1] = experiment: as above; assay type: cell-based; conditions: Enterococcus faecalis, medium MHA
Protocol: as §1

S.aureus MRSA = experiment: as above; assay type: cell-based; conditions: Staphylococcus aureus, medium MHA (Mueller Hinton Agar) +NaCl
Protocol: as §1

E.faecium = experiment: In vitro activity against selected species (MIC50, range); assay type: cell-based; conditions: Enterococcus faecium, medium MHA
Protocol: as §1

M.catarrhalis = experiment: In vitro activity against selected species (MIC50, MIC90, range); assay type: cell-based; conditions: Moraxella catarrhalis, medium IsoB
Escherichia coli 25922 = experiment: Efficacy against systemic infections (septicemia) in mice; assay type: in vivo; conditions: 96 h, survival day 4
Protocol: (§2) Septicemia was induced in outbred Swiss albino mice (Jbm MoRo [specific pathogen free]; weight 16 to 20 g, Biomedical Research Laboratories, Füllinsdorf, Switzerland). Mice were infected by intraperitoneal injection of diluted overnight cultures of the test organisms. Bacterial challenge doses were 4-10 times the number of organisms required to kill 50% of untreated animals within 48 h. The test compounds were administered p.o. or s.c. 1 and 3 h after the bacterial challenge. To treat the infection with Pseudomonas aeruginosa BA an additional dose was given 5 h after challenge. Control and treatment groups at each dose were composed of five mice each. The 50% effective dose (ED50, in milligrams per kilogram) was calculated by probit analysis as described by Finney (Finney, D.J. 1978, Statistical method in biological assay, 3rd ed. Charles Griffin & Co., Ltd., London), from the survival rates on day 4 after infection.

S.aureus Smith = experiment: as above; assay type: in vivo; conditions: Staphylococcus aureus, 96 h, sc 1 and 3 h after challenge, survival day 4
Protocol: as §2

E.faecalis [2] = experiment: In vitro activity against selected species (MIC50, MIC90, range); assay type: cell-based; conditions: Enterococcus faecalis, medium IsoB
B.fragilis ATCC25285 = experiment: Antibacterial spectrum (MIC), agar dilution; assay type: cell-based
Protocol: as §1

C.difficile ZH1 = experiment: Antibacterial spectrum (MIC), agar dilution; assay type: cell-based
Protocol: as §1

P.asaccharolyticus 29743 = experiment: Antibacterial spectrum (MIC), agar dilution; assay type: cell-based
Protocol: as §1

[3] = Citrobacter freundii, read-out: MIC
[4] = Enterobacter cloacae, read-out: MIC
[5] = Staphylococcus aureus, read-out: MIC
[6] = medium IsoB (Isosensitest Broth)

COc1ccc(N2CC/C(=C\C3=C(C(=O)O)N4C(=O)[C@@H](NC(=O)/C(=N\O)c5csc(N)n5)[C@H]4SC3)C2=O)cc1 [I]
MIC (Acinetobacter sp.51-156; SP.51156, read-out: MIC): 32 µg/mL (≈ 56.1 µM) | MIC (C.freundii 43; [3]): 8 µg/mL (≈ 14 µM) | MIC (C.freundii 902; [3]): 0.25 µg/mL (≈ 0.438 µM) | MIC (E.cloacae 908R; [4]): 32 µg/mL (≈ 56.1 µM) | MIC (E.cloacae 908SSi; [4]): 0.5 µg/mL (≈ 0.876 µM) | MIC (E.coli 25922; Escherichia coli, read-out: MIC): 0.12 µg/mL (≈ 0.21 µM) | MIC (E.faecalis 6; Enterococcus faecalis, read-out: MIC): 0.25 µg/mL (≈ 0.438 µM) | MIC (H.influenzae 1; Haemophilus influenzae, read-out: MIC): 0.25 µg/mL (≈ 0.438 µM) | MIC (K.pneumoniae 418; Klebsiella pneumoniae, read-out: MIC): 0.12 µg/mL (≈ 0.21 µM) | MIC (L.monocytogenes BK23; Listeria monocytogenes, read-out: MIC): 2 µg/mL (≈ 3.51 µM) | MIC (M.catarrhalis RA21; Moraxella catarrhalis, read-out: MIC): > 16 µg/mL | MIC (M.morganii 6H-137; Morganella morganii, 6H137, read-out: MIC): ≤ 0.06 µg/mL | MIC (N.meningitidis 69480; Neisseria meningitidis, read-out: MIC): ≤ 0.06 µg/mL | MIC (P.aeruginosa 27853; Pseudomonas aeruginosa, read-out: MIC): > 32 µg/mL | MIC (P.mirabilis 2117; Proteus mirabilis, read-out: MIC): 0.12 µg/mL (≈ 0.21 µM) | MIC (P.vulgaris 1028; Proteus vulgaris, read-out: MIC): 2 µg/mL (≈ 3.51 µM) | MIC (S.agalactiae QK44; Streptococcus agalactiae, read-out: MIC): 0.25 µg/mL (≈ 0.438 µM) | MIC (S.aureus 6538; [5]): 0.5 µg/mL (≈ 0.876 µM) | MIC (S.aureus 734 MRSA; [5]): 8 µg/mL (≈ 14 µM) | MIC (S.marcescens 69438; Serratia marcescens, read-out: MIC): 1 µg/mL (≈ 1.75 µM) | MIC (S.pneumoniae Q19; Streptococcus pneumoniae, read-out: MIC): ≤ 0.06 µg/mL | MIC (S.pyogenes B15; Streptococcus pyogenes, read-out: MIC): ≤ 0.06 µg/mL | MIC (S.viridans group 016; Streptococcus viridans, read-out: MIC): 0.5 µg/mL (≈ 0.876 µM) | MIC (X.maltophilia 1AC739; Stenotrophomonas maltophilia, read-out: MIC): > 32 µg/mL | MIC (S.aureus MSSA; MIC range): 0.5 to 1 µg/mL (≈ 0.876 to 1.75 µM) | MIC50 (S.aureus MSSA): 0.5 µg/mL (≈ 0.876 µM) | MIC90 (S.aureus MSSA): 0.5 µg/mL (≈ 0.876 µM) | MIC (S.pneumoniae PEN-R; [6]): 0.12 to 0.25 µg/mL (≈ 0.21 to 0.438 µM) | MIC (S.pneumoniae PEN-R; medium IsoB + 20% serum): 0.12 to 0.5 µg/mL | MIC50 (S.pneumoniae PEN-R; [6]): ≤ 0.12 µg/mL | MIC90 (S.pneumoniae PEN-R; [6]): ≤ 0.12 µg/mL | MIC50 (S.pneumoniae PEN-R; medium IsoB + 20% serum): 0.25 µg/mL | MIC50 (S.viridans group): 0.5 µg/mL (≈ 0.876 µM) | MIC90 (S.viridans group): 2 µg/mL (≈ 3.51 µM) | MIC (S.viridans group; MIC range): 0.12 to 4 µg/mL (≈ 0.21 to 7.01 µM) | MIC (E.faecalis [1]; MIC range): 0.5 to 1 µg/mL (≈ 0.876 to 1.75 µM) | MIC50 (E.faecalis [1]): ≤ 0.5 µg/mL | MIC90 (E.faecalis [1]): 1 µg/mL (≈ 1.75 µM) | MIC (S.aureus MRSA; MIC range): 16 to 32 µg/mL (≈ 28 to 56.1 µM) | MIC50 (S.aureus MRSA): 16 µg/mL (≈ 28 µM) | MIC90 (S.aureus MRSA): 32 µg/mL (≈ 56.1 µM) | MIC (E.faecium; MIC range): 0.1 to 16 µg/mL (≈ 0.175 to 28 µM) | MIC50 (E.faecium): 2 µg/mL (≈ 3.51 µM) | MIC (M.catarrhalis; MIC range): 1 to 64 µg/mL (≈ 1.75 to 112 µM) | MIC50 (M.catarrhalis): 8 µg/mL (≈ 14 µM) | MIC90 (M.catarrhalis): 16 µg/mL (≈ 28 µM) | ED50 (Escherichia coli 25922; Escherichia coli 25922, po (orally) 1 and 3 h after challenge): 4.5 mg/kg | ED50 (Escherichia coli 25922; Escherichia coli, E.coli 25922, sc 1 and 3 h after challenge): < 0.3 mg/kg | ED50 (S.aureus Smith): < 1 mg/kg | MIC (E.faecalis [2]; MIC range): 0.25 to 1 µg/mL (≈ 0.438 to 1.75 µM) | MIC50 (E.faecalis [2]): 0.5 µg/mL (≈ 0.876 µM) | MIC90 (E.faecalis [2]): 1 µg/mL (≈ 1.75 µM)

Nc1nc(/C(=N/O)C(=O)N[C@@H]2C(=O)N3C(C(=O)O)=C(/C=C4\CCN(c5cccnc5)C4=O)CS[C@H]23)cs1 [K, [6R-[3(E),6α,7β(Z)]]-7-[[(2-Amino-4-thiazolyl)(hydroxyimino)acetyl]-amino]-8-oxo-3-[[2-oxo-1-(3-pyridinyl)-3-pyrrolidinylidene]methyl]-5-thia-1-azabicyclo[4.2.0]oct-2-ene-2-carboxylic acid]
MIC (Acinetobacter sp.51-156): 32 µg/mL (≈ 59.1 µM) | MIC (B.fragilis ATCC25285): 4 µg/mL (≈ 7.39 µM) | MIC (C.difficile ZH1): 16 µg/mL (≈ 29.5 µM) | MIC (C.freundii 43): 2 µg/mL (≈ 3.69 µM) | MIC (C.freundii 902): ≤0.12 µg/mL | MIC (E.cloacae 908R): 4 µg/mL (≈ 7.39 µM) | MIC (E.cloacae 908SSi): ≤0.12 µg/mL | MIC (E.coli 25922): ≤0.12 µg/mL | MIC (E.faecalis 6): 1 µg/mL (≈ 1.85 µM) | MIC (H.influenzae 1): 0.25 µg/mL (≈ 0.462 µM) | MIC (K.pneumoniae 418): ≤0.12 µg/mL | MIC (L.monocytogenes BK23): 8 µg/mL (≈ 14.8 µM) | MIC (M.catarrhalis RA21): >16 µg/mL | MIC (M.morganii 6H-137): ≤0.12 µg/mL | MIC (N.meningitidis 69480): ≤0.06 µg/mL | MIC (P.aeruginosa 27853): 16 µg/mL (≈ 29.5 µM) | MIC (P.asaccharolyticus 29743): ≤0.25 µg/mL | MIC (P.mirabilis 2117): ≤0.12 µg/mL | MIC (P.vulgaris 1028): 4 µg/mL (≈ 7.39 µM) | MIC (S.agalactiae QK44): 0.5 µg/mL (≈ 0.923 µM) | MIC (S.aureus 6538): 1 µg/mL (≈ 1.85 µM) | MIC (S.aureus 734 MRSA): 8 µg/mL (≈ 14.8 µM) | MIC (S.marcescens 69438): 0.5 µg/mL (≈ 0.923 µM) | MIC (S.pneumoniae Q19): 0.12 µg/mL (≈ 0.222 µM) | MIC (S.pyogenes B15): ≤0.06 µg/mL | MIC (S.viridans group 016): 1 µg/mL (≈ 1.85 µM) | MIC (X.maltophilia 1AC739): >32 µg/mL
